From ChEMBL document CHEMBL1201862, “PubChem BioAssay data set” (2004)
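Exposure lasted 48 hours, with cells grown in 96-well plates and compounds tested at five concentrations. GI50 marks 50% less growth.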 Calls of active or inactive are those of the source. Rule as the data show it: active = GI50 up to about 1.1 µM and inactive = higher.

What was measured:
Test in all cases: growth of human tumour cells (NCI), 48 h
[1] = test system: A498
[2] = test system: COLO 205
[3] = test system: DU-145
[4] = test system: HOP-92
[5] = test system: K562
[6] = test system: LOX IMVI
[7] = test system: MDA-MB-435
[8] = test system: NCI-H23
[9] = test system: NCI-H522
[10] = test system: NCI/ADR-RES
[11] = test system: OVCAR-8
[12] = test system: RXF 393
[13] = test system: SF-268
[14] = test system: SF-295
[15] = test system: SR
[16] = test system: TK-10
[17] = test system: U-251
[18] = test system: UACC-257
[19] = test system: UO-31
[20] = test system: RPMI-8226

Structure (SMILES) | GI50 [1] | GI50 [2] | GI50 [3] | GI50 [4] | GI50 [5] | GI50 [6] | GI50 [7] | GI50 [8] | GI50 [9] | GI50 [10] | GI50 [11] | GI50 [12] | GI50 [13] | GI50 [14] | GI50 [15] | GI50 [16] | GI50 [17] | GI50 [18] | GI50 [19] | GI50 [20]
CCOC(=O)C(COS(C)(=O)=O)(COS(C)(=O)=O)C(=O)OCC | 11.1 µM (inactive) | > 100 µM (inactive) | > 100 µM (inactive) | > 100 µM (inactive) | > 100 µM (inactive) | > 100 µM (inactive) | > 100 µM (inactive) | > 100 µM (inactive) | > 100 µM (inactive) | > 100 µM (inactive) | > 100 µM (inactive) | > 100 µM (inactive) | > 100 µM (inactive) | > 100 µM (inactive) | > 100 µM (inactive) | > 100 µM (inactive) | > 100 µM (inactive) | > 100 µM (inactive) | > 100 µM (inactive) | –
Clc1ccc2oc(CCC3CCCCC3)nc2c1 | 37.8 µM (inactive) | 21.4 µM (inactive) | 34.3 µM (inactive) | 35.2 µM (inactive) | 38.2 µM (inactive) | 4.7 µM (inactive) | 27.3 µM (inactive) | 29.9 µM (inactive) | 21.9 µM (inactive) | 30.3 µM (inactive) | 44.1 µM (inactive) | 15.1 µM (inactive) | 64.7 µM (inactive) | 22 µM (inactive) | 19.7 µM (inactive) | 26.4 µM (inactive) | 19.3 µM (inactive) | 30.6 µM (inactive) | 17.9 µM (inactive) | 37.3 µM (inactive)
CC(C)(C)c1cc(C(=O)/C=C/c2c(Cl)cccc2Cl)cc(C(C)(C)C)c1O | 27.2 µM (inactive) | 15.9 µM (inactive) | 23 µM (inactive) | 25.8 µM (inactive) | 18.9 µM (inactive) | 13.6 µM (inactive) | 15.5 µM (inactive) | 16.1 µM (inactive) | 5.57 µM (inactive) | 20.1 µM (inactive) | 18.9 µM (inactive) | 2.05 µM (inactive) | 18.8 µM (inactive) | 11.5 µM (inactive) | 3.86 µM (inactive) | 19.4 µM (inactive) | 11.9 µM (inactive) | 5.6 µM (inactive) | 14.9 µM (inactive) | 3.8 µM (inactive)
C=CC(=O)NCCC(=O)OCn1cc(F)c(=O)[nH]c1=O | 0.456 µM (active) | 1.37 µM (inactive) | 3.64 µM (inactive) | 8.49 µM (inactive) | 9.66 µM (inactive) | 4.34 µM (inactive) | 5.32 µM (inactive) | 7.01 µM (inactive) | 9.4 µM (inactive) | 27 µM (inactive) | 11.5 µM (inactive) | 10.1 µM (inactive) | 18.7 µM (inactive) | 15.5 µM (inactive) | 2.12 µM (inactive) | 0.838 µM (active) | 18 µM (inactive) | 7.11 µM (inactive) | 2.33 µM (inactive) | 1.75 µM (inactive)
CC(NC(=O)C(NC(=O)C(NC(=O)C(F)(F)F)C(C)C)C(C)C)C(=O)Oc1c(Cl)c(Cl)c(Cl)c(Cl)c1Cl (stereo unspecified) | > 100 µM (inactive) | > 100 µM (inactive) | > 100 µM (inactive) | 32.5 µM (inactive) | > 100 µM (inactive) | > 100 µM (inactive) | > 100 µM (inactive) | > 100 µM (inactive) | 85.5 µM (inactive) | > 100 µM (inactive) | > 100 µM (inactive) | > 100 µM (inactive) | > 100 µM (inactive) | – | > 100 µM (inactive) | > 100 µM (inactive) | > 100 µM (inactive) | > 100 µM (inactive) | 86.7 µM (inactive) | > 100 µM (inactive)
CC(=O)O[C@H]1CC[C@@]2(C)C(=CC[C@@H]3[C@@H]2CC[C@]2(C)Nc4c(cnn4S(C)(=O)=O)C[C@@H]32)C1 | > 100 µM (inactive) | 69 µM (inactive) | 49.5 µM (inactive) | 71.3 µM (inactive) | 19.1 µM (inactive) | – | 46.8 µM (inactive) | 42.5 µM (inactive) | 41.1 µM (inactive) | > 100 µM (inactive) | > 100 µM (inactive) | 18.1 µM (inactive) | – | 62.2 µM (inactive) | 40.4 µM (inactive) | – | 76.7 µM (inactive) | – | 76.7 µM (inactive) | 32.3 µM (inactive)
C[C@@H]1Nc2cc(NC(=O)OCCF)nc(N)c2N=C1c1ccccc1 | 19.8 µM (inactive) | < 0.0001 µM (active) | < 0.0001 µM (active) | > 100 µM (inactive) | < 0.0001 µM (active) | < 0.0001 µM (active) | < 0.0001 µM (active) | < 0.0001 µM (active) | < 0.0001 µM (active) | < 0.0001 µM (active) | < 0.0001 µM (active) | 29 µM (inactive) | < 0.0001 µM (active) | < 0.0001 µM (active) | < 0.0001 µM (active) | – | < 0.0001 µM (active) | < 0.01 µM (active) | 21.5 µM (inactive) | < 0.0001 µM (active)
Cc1cc(NS(=O)(=O)c2ccc(/N=[N+](\[O-])c3ccc(S(=O)(=O)Nc4cc(C)on4)cc3)cc2)no1 | > 100 µM (inactive) | > 100 µM (inactive) | > 100 µM (inactive) | > 100 µM (inactive) | > 100 µM (inactive) | > 100 µM (inactive) | > 100 µM (inactive) | > 100 µM (inactive) | > 100 µM (inactive) | > 100 µM (inactive) | > 100 µM (inactive) | > 100 µM (inactive) | > 100 µM (inactive) | > 100 µM (inactive) | > 100 µM (inactive) | > 100 µM (inactive) | > 100 µM (inactive) | > 100 µM (inactive) | > 100 µM (inactive) | > 100 µM (inactive)
O=[N+]([O-])c1ccc(C(=S)Nc2ccccc2)o1 | 18.1 µM (inactive) | – | 6.41 µM (inactive) | 15.3 µM (inactive) | 0.938 µM (active) | 2.29 µM (inactive) | 2.58 µM (inactive) | 3.35 µM (inactive) | 1.34 µM (inactive) | 2.16 µM (inactive) | 2.51 µM (inactive) | 4.14 µM (inactive) | 3.36 µM (inactive) | 5.56 µM (inactive) | 1.79 µM (inactive) | 4.74 µM (inactive) | 1.48 µM (inactive) | 4.3 µM (inactive) | 2.32 µM (inactive) | 1.53 µM (inactive)
COC(=O)/C=C1\SC2(O\C1=N/c1ccccc1)C1CC3CC(C1)CC2C3 (stereo unspecified) | > 100 µM (inactive) | – | > 10 µM (inactive) | > 100 µM (inactive) | > 100 µM (inactive) | > 100 µM (inactive) | > 100 µM (inactive) | – | > 100 µM (inactive) | > 100 µM (inactive) | > 100 µM (inactive) | > 100 µM (inactive) | – | > 100 µM (inactive) | > 100 µM (inactive) | > 100 µM (inactive) | > 100 µM (inactive) | > 100 µM (inactive) | > 100 µM (inactive) | > 100 µM (inactive)
O=c1cnn(C/C=C/CO)c(=O)[nH]1 | > 100 µM (inactive) | > 100 µM (inactive) | > 100 µM (inactive) | > 100 µM (inactive) | > 100 µM (inactive) | 28.3 µM (inactive) | > 100 µM (inactive) | > 100 µM (inactive) | > 100 µM (inactive) | > 100 µM (inactive) | > 100 µM (inactive) | > 100 µM (inactive) | > 100 µM (inactive) | – | > 100 µM (inactive) | > 100 µM (inactive) | > 100 µM (inactive) | > 100 µM (inactive) | > 100 µM (inactive) | > 100 µM (inactive)
CC[C@@]1(O)C(=O)OCc2c1cc1n(c2=O)Cc2c-1nc1ccccc1c2/C=N\NC(=O)C(N)Cc1c[nH]c2ccccc12 (stereo partly specified) | 0.499 µM (active) | 18.2 µM (inactive) | 0.164 µM (active) | 3.8 µM (inactive) | 0.239 µM (active) | 0.0675 µM (active) | 1.05 µM (active) | 0.124 µM (active) | 0.643 µM (active) | 0.809 µM (active) | 0.555 µM (active) | 0.145 µM (active) | 0.0354 µM (active) | 0.0887 µM (active) | < 0.01 µM (active) | 20 µM (inactive) | 0.0502 µM (active) | 1.96 µM (inactive) | 0.173 µM (active) | 0.78 µM (active)
CC(=O)Oc1cccc2c1C(=O)c1c(OC(C)=O)cc(C)cc1C2=O | 37.8 µM (inactive) | 58.2 µM (inactive) | 56.6 µM (inactive) | 70.6 µM (inactive) | 29 µM (inactive) | 69 µM (inactive) | 43.4 µM (inactive) | 50.9 µM (inactive) | 12.2 µM (inactive) | 21.1 µM (inactive) | 39.8 µM (inactive) | 28.2 µM (inactive) | 62.8 µM (inactive) | 29.1 µM (inactive) | 33 µM (inactive) | > 100 µM (inactive) | 30.2 µM (inactive) | > 100 µM (inactive) | – | 12.6 µM (inactive)
CSc1ccc2c(cc1=O)[C@@H](NC(C)=O)CCc1cc(O)c(O)c(O)c1-2 | 23.3 µM (inactive) | 30.4 µM (inactive) | > 100 µM (inactive) | 23.7 µM (inactive) | – | 23 µM (inactive) | 10.4 µM (inactive) | 20.5 µM (inactive) | 16.2 µM (inactive) | 19.9 µM (inactive) | 19.1 µM (inactive) | 72.4 µM (inactive) | 16.3 µM (inactive) | 13.3 µM (inactive) | 7.8 µM (inactive) | 18.8 µM (inactive) | 16.3 µM (inactive) | 37.2 µM (inactive) | 21.6 µM (inactive) | 12.9 µM (inactive)
